The values below come from patent publication US20200108069A1, “Treatment of Fibrotic Conditions” (ANGLIA RUSKIN UNIVERSITY HIGHER EDUCATION CORPORATION, priority 2018, published 2020).

Where two headings read alike, the source gives them in different places.

In test [1] the test system is TGF-β1-induced myofibroblast collagen contraction, TA-derived fibroblasts. The test is described as follows: Collagen gel contraction assay (fibroblast populated collagen lattices). The following applies: 10 ng/ml TGF-β1; lattices released after 72 h, contraction observed for 8 h. Type of test: cell-based, human. As for the experimental part:
Images were analysed using ImageJ software by measuring the surface area of the contracting lattice. Contraction was calculated as percentage of the surface of the unreleased lattice. Data is shown as percentage of maximum contraction of vehicle control. The two classes of drugs were then tested in functional assays. Firstly, we tested their efficacy in inhibiting collagen gel contraction as a measure of myofibroblast contractility; a characteristic function of myofibroblasts, which separates them from fibroblasts. […] Secondly, we tested the drugs' efficacy in inhibiting ECM protein production, which is again one of the critical characteristic functions of myofibroblasts. […] FIG. 4).

Test [2] deals with fibroblasts isolated from human tunica albuginea (TA); TGF-β1-induced myofibroblast transformation. The test can be described thus: In Cell ELISA (ICE) phenotypic screening assay of TGF-β1-induced myofibroblast transformation (α-SMA/DNA staining). Format: cell-based. The note with it: for IC50: co-incubation with 10 ng/ml TGF-β1 for 72 hours, α-SMA/DNA staining ratio, read-out: IC50, inhibition of TGF-β1-induced myofibroblasts transformation. The source says: Tunica albuginea tissue samples were collected from patients undergoing surgery at University College London Hospital (UCLH), London, UK for penile cancer or PD. All patients gave fully informed written consent to the study. The study was approved by independent research ethics committees (NRES Committee East of England 12/EE/0170 and NRES Committee North of Scotland 15/NS/0051). PD plaque tissue was obtained from patients with chronic PD undergoing a Lue procedure (plaque incision and grafting). Plaque tissue would have otherwise been discarded. Non-plaque TA was obtained from PD patients undergoing a Nesbit procedure whereby non-fibrotic TA tissue was excised from the opposite side of the plaque. TA tissue samples from patients with penile cancer were taken from the proximal side away from the tumour, with the tumour showing negative margins on histological examination.
Tissue samples were carefully dissected to ensure that all cavernosal tissue was removed from the tunica albuginea (TA). To establish fibroblast cultures, TA fragments were seeded in 6-well tissue culture plates (Nunc, Fisher Scientific, UK) as described previously16. The tissue pieces were incubated in DMEM-F12 (GIBCO, Invitrogen, UK) containing 10% FCS (Fisher Scientific, UK) and 1% penicillin-streptomycin (GIBCO, Invitrogen, UK) at 37° C., 5% CO2 for 5-7 days. Tissue fragments were carefully removed using forceps upon outgrowth of cells. Passages 2 to 4 were used for the rest of the experiments.
Cells were seeded onto 96 well optical flat bottom black microplates (Nunc, Fisher Scientific, UK) at 5×10^3 cells per well. After overnight attachment they were incubated with or without 10 ng/ml TGF-β1 for 72 hours. The cells were then fixed using 4% paraformaldehyde, and blocked with 10% donkey serum and 0.1% Triton X-100 in PBS. The cells were then incubated with anti-α-SMA antibody (1:3,000; Sigma Aldrich, UK) for 2 h. Afterwards cells were incubated with donkey anti-mouse secondary antibody conjugated to an infrared dye which emits at 800 nm (1:500; IRdye 800CW; Li-Cor, UK) and a nuclear counterstain at that emits at 700 nm (1:1,000; DRAQS, Biostatus, UK) for 1 h. The plate was scanned using an infrared imaging system (Odyssey CLx imager, LI-COR, UK) at both the 700 nm and 800 nm wavelengths.
We have isolated primary fibroblasts from the plaque and non-plaque TA of patients with PD. We also isolated primary fibroblasts from TA of patients with penile cancer as non-fibrotic controls.

Test [3] has as its system TGF-β1 injection into the rat TA (animal model for PD), penile fibrosis. The test is described as follows: Animal model for PD: molecular and histological analysis of penile tissue (qPCR, Western blot, immunohistochemistry). Format: in vivo, Male Sprague-Dawley rats. The text has this: The animal model for PD was first described by […] Lue^18 and modified by Bivalacqua and Hellstrom^19. Male Sprague-Dawley rats (10-12 weeks old) were housed in a regulated environment with a 12-hour light/dark cycle in a standard experimental laboratory. The animals had free access to food and water ad libitum. Fifty male Sprague-Dawley rats were divided into 5 groups: A: sham (injection of vehicle citrate buffer), B: […] Treatment was initiated at the day after injury and continued for 5 weeks followed by a 48 hours wash-out period. The High-Capacity cDNA Reverse Transcription Kit (Applied Biosystems) was used according to the manufacturer's instructions to transcribe RNA to cDNA. One μg in 10 μl were added to 10 μl of the master mix for reverse transcription for a total reaction volume of 20 μl. After reverse transcription the cDNA was diluted 1:10 for qPCR. The Applied BiosystemsTM TaqManTM Fast Advanced Master Mix was used for qPCR. Gene specific primer pairs for GAPDH, beta-actin, alpha smooth muscle actin, elastin, and collagens I, III, and V were purchased from Applied Biosystems. […] Data was analysed using the 2-ΔΔCt method for relative quantifications. […] Statistical significance, unless otherwise stated, was calculated using one or two-way ANOVA and Student's t-test for unpaired means (two-sided). […]
On the technique in general: Real-time PCR tracks product formation cycle by cycle.

Test [4] relates to TGF-β1 injection into the rat TA (animal model for PD). The test can be described thus: Animal model for PD: assessment of erectile function (intracavernous pressure, ICP). Format: in vivo, Male Sprague-Dawley rats. The note with it: tamoxifen 5 mg/kg/day i.p., vardenafil 1.5 mg/kg/day drinking water, 5 weeks.
Test [5] relates to TGF-β1-induced myofibroblast ECM protein production, cells derived from TA tissue. The test is described as follows: ECM production assay. Format: cell-based. The note with it: Homo sapiens, 168 h, 10 ng/ml TGF-β1 for 7 days. The procedure:
Cells were seeded onto 96 well optical flat bottom black microplates (Nunc, Fisher Scientific, UK) at 5×10^3 cells per well. After overnight attachment, they were stimulated with or without 10 ng/ml TGF-β1 and/or compounds for 7 days. DRAQS in PBS (1:1,000) was added and cells were incubated for 5 min at 37° C., 5% CO2 before scanning the plate to obtain nuclear staining. […] Afterwards ECM was stained either with Coomassie Blue (total ECM) overnight at 4° C. or with primary antibodies (collagen I, abcam; collagen III, Millipore; collagen V, abcam: fibronectin, Millipore) at 1:1000 for 1 h on a shaker, followed by incubation with secondary antibody and scanning the plate using an infrared imaging system (Odyssey CLx imager, LI-COR, UK) at both the 700 nm and 800 nm wavelengths. Results were normalized to the cell number before lysis.

The mark [6] stands for this setting: Homo sapiens, Fibroblast, read-out: Percentage of inhibition of TGF-β1 induced myofibroblast transformation, Tamoxifen only, 10 ng/ml TGF-β1, 72 hours.
Where [7] appears, read: Homo sapiens, Fibroblast, 10 ng/ml TGF-β1, 72 hours, read-out: Percentage of inhibition of TGF-β1 induced myofibroblast transformation, Vardenafil only.

Regarding `CC/C(=C(\c1ccccc1)c1ccc(OCCN(C)C)cc1)c1ccccc1` [tamoxifen], the “concentration at which TGF-β1-induced contraction of collagen was inhibited” value in test [1] stood at 1 µM. For the same compound, in test [2] (100 μM, 10 ng/ml TGF-β1, 72 hours), the “Percentage of inhibition of TGF-β1 induced myofibroblast transformation, Tamoxifen only” value was “cell death”. In test [2] (setting [6]), the inhibition at 0.3 µM is 10 ± 3%, the inhibition at 1 µM is 10 ± 2%, the inhibition at 3 µM stood at 10 ± 3% and the inhibition at 10 µM came out at 25 ± 3%. For the same compound, the “TGF-β1-induced upregulation of collagen expression (collagens I, III, V mRNA) in penile tissue” value in test [3] (5 weeks treatment, qPCR) is “prevented”. Also, the “penile fibrosis in an animal model for PD” value in test [3] (FIG. 5) is listed as “ameliorate penile fibrosis”. Further, the “TGF-β1-induced decrease in erectile function (ICP) by 55%” value in test [4] is recorded as “prevented”.
Consider `CCCc1nc(C)c2c(=O)[nH]c(-c3cc(S(=O)(=O)N4CCN(CC)CC4)ccc3OCC)nn12` [vardenafil], for which the “concentration at which TGF-β1-induced contraction of collagen was inhibited” value in test [1] worked out at 10 µM. In test [2] (setting [7]), the inhibition at 0.3 µM stood at 3 ± 3%. Further, the inhibition at 1 µM in test [2] (setting [7]) is 10 ± 1%. Moreover, the inhibition at 3 µM in test [2] (setting [7]) was 8 ± 2%. For the same compound, in test [2] (setting [7]), the inhibition at 10 µM was 17 ± 2%. Besides, in test [2] (Homo sapiens, Fibroblast, 30 μM, 10 ng/ml TGF-β1, 72 hours, read-out: Percentage of inhibition of TGF-β1 induced myofibroblast transformation, Vardenafil only), the inhibition at 30 µM is 25 ± 1%. Also, the inhibition at 100 µM in test [2] (Homo sapiens, Fibroblast, 100 μM, 10 ng/ml TGF-β1, 72 hours, read-out: Percentage of inhibition of TGF-β1 induced myofibroblast transformation, Vardenafil only) was determined as 48 ± 1%. In addition, the IC50 in test [2] (Homo sapiens, Fibroblast) was found to be 30 µM; in test [5] (read-out: IC50, TGF-β1-induced ECM protein production: collagen I) it was 23 µM; in test [5] (read-out: IC50, TGF-β1-induced ECM protein production: collagen III) it was 17 µM; in test [5] (read-out: IC50, TGF-β1-induced ECM protein production: collagen V) it was 23 µM; in test [5] (read-out: IC50, TGF-β1-induced ECM protein production: fibronectin), 44 µM.
As to `Cc1cccc(-c2[nH]c(C(C)(C)C)nc2-c2ccc3c(c2)OCO3)n1` [SB505124], in test [2], the IC50 worked out at 0.6 µM.
`CCCc1nn(C)c2c(=O)[nH]c(-c3cc(S(=O)(=O)N4CCN(C)CC4)ccc3OCC)nc12` [sildenafil]: the IC50 in test [2] (Homo sapiens, Fibroblast) came to 15 µM.
Still for that read-out and setting: with `CN1CC(=O)N2[C@H](c3ccc4c(c3)OCO4)c3[nH]c4ccccc4c3C[C@@H]2C1=O` [tadalafil] the figure was 3.5 µM.
In the case of `O=C(c1ccc(OCCN2CCCCC2)cc1)c1c(-c2ccc(O)cc2)sc2cc(O)ccc12` [raloxifene], in test [2], the IC50 worked out at 7 µM.

In general, inhibition refers to the drop in the measured response relative to a control, in per cent. A word on the IC50: it is the concentration needed to halve the response being measured.
